Assay results from patent US7847152B2, “Use of tryptophan indole and anthranilate analogs as plant transformation selection agents” (The Board of Trustees of the University of Illinois, priority 2006, dated 2010).
“Also recorded” adds a separate entry of the source.

Tests used:
[1] = system: wild-type (WT) tobacco leaf discs; experiment: Leaf callus/shoot formation inhibition, wild-type tobacco leaf discs; format: cell-based, Nicotiana tabacum; details: for effectiveness as selection agent among the analogs tested: 9 Trp analogs and 7 indole analogs tested; for callus production of the wild-type / shoot formation of WT leaf discs: 300 μm analog
Description: (§1) Leaf callus formation was studied on the nutrient medium described herein using a total of 30 leaf discs at 28° C. under fluorescent light. After 2 weeks, callus formation was measured and after 4 weeks shoot production was recorded.
(§2) Leaf callus/shoot formation was studied on Tobacco Regeneration Medium that was MS basal medium with 88 μM 6-benzyladenine (BA) and 0.5 μM naphthalene acetic acid (NAA) and various concentrations of different Trp and indole analogs using a total of 30 leaf discs (6 mm each in diameter) from either the untransformed wild type (WT) tobacco or the ASA2 expressing transgenic line transformed with pAST-IV vector (line ASTIV) at 28° C. under fluorescent light as described above. Callus formation and shoot production was visually evaluated after 2, 4 and 6 weeks. Seedling growth inhibition was studied as described herein.

[2] = system: ASA2 expressing transgenic tobacco (line ASTIV); experiment: Leaf callus formation and growth of ASA2 expressing (5MT resistant) tobacco plants; format: cell-based, Nicotiana tabacum; details: 300 μm analog; for callus and shoot formation of ASA2 expressing leaf discs: after four/six weeks
Text: (§3) The concentrations listed in Table 1 are for illustrative purposes and should not be construed as a limited range. Seedling growth inhibition was studied by placing a total of 45 surface-sterilized seeds of either the wild-type (WT) tobacco (Nicotiana tabacum cv. Petit Havana SR1) or the ASA2 expressing transgenic plants previously obtained (Zhang et al., 2001), on Murashige-Skoog medium supplemented with 3% sucrose, vitamins, 0.8% agar and various concentrations of the different analogs (see Table 1). Seed germination and root formation were measured after 2 weeks, at 28° C. under fluorescent light. The analogs listed in Table 1 were obtained from Sigma-Aldrich (St. Louis, Mo.) or Acros Organics (Morris Plains, N.J.).
as §1, §2

[3] = system: wild-type (WT) tobacco seedlings; experiment: Seedling growth inhibition test, wild-type tobacco; format: in vivo, Nicotiana tabacum; details: for germination of WT and ASTIV seeds on analog containing medium / WT seedling growth: 75 μm analog; for WT seedling growth: after two weeks
Text: as §3
(§4) A vector pC2ASA2 was used, which contains a full length 2,144-bp AS feedback-insensitive α-subunit (ASA2) cDNA, encoding 616 amino acids including a putative transit peptide and 204 bp of 3′non-coding region driven by the CaMV35S promoter. pC2ASA2 was electroporated into Agrobacterium tumefaciens strain EHA105 and then used for the leaf disc transformation. Shoots of tobacco (Nicotiana tabacum L. cv. Xanthi) plants were maintained as in vitro stock cultures in Magenta boxes containing MS basal medium (Murashige and Skoog 1962) with 2 g 1-1 Gelrite® and leaves from these shoots were sources of explants for transformation. The growth conditions were 16-h photoperiod with a temperature of 28° C., florescent lamps providing a photosynthetic photon flux density of 150 μmol m-2 s-1 at the shelf surface. For segregation tests or for seedling growth inhibition tests on different analogs, 50 seeds/plate were surface sterilized with a solution of distilled water-Clorox (80:20; 1.25% Na hypochlorite) for 20 min containing a few drops of Tween 20™ and then rinsed with sterile water before spreading them on MS basal medium plates containing the appropriate selective agent.

[4] = system: ASA2 expressing transgenic tobacco seedlings; experiment: Seedling growth inhibition test, ASA2 expressing transgenic tobacco; format: in vivo, Nicotiana tabacum; details: 75 μm analog; for germination and growth of T2 seed of homozygous ASA2 lines: four lines, pC2ASA2 transformants; for transgenic seedling growth: line ASTIV
Text: as §3, with “Seed germination and root formation were measured after 2 weeks, at 28° C. under fluorescent light.” left out
as §4
To test for the segregation of the transgene in the T1 generation, seeds of the transgenic lines were germinated on medium containing either 75 4MI or 75 μm 7MT for 21 days. The ratios of resistant/sensitive seedlings were for most of the lines close to the expected 3:1 ratio confirming a single nuclear site of insertion for the 15 lines tested.

[5] = system: Arabidopsis germinating seedlings; experiment: Discrimination between wild type and ASA2 expressing Arabidopsis germinating seedlings; format: in vivo; details: Arabidopsis seeds
[6] = system: tobacco shoot producing leaf discs; experiment: Discrimination between wild type and ASA2 expressing tobacco shoot producing leaf discs; format: cell-based
Description: Various concentrations of the different analogs were tested on maize, soy bean, and tobacco that includes growth inhibition test of germination, leaf callus formation test, and other growth inhibition tests (FIGS. 15-38).
as §2

[7] = system: tobacco leaf discs transformed with CaMV35S-ASA2; experiment: Selection of A. tumefaciens (pC2ASA2) transformed tobacco leaf discs on analog; format: cell-based, Nicotiana tabacum L. cv. Xanthi; details: for resistant plants obtained (total of two experiments): 300 μm on TRM, 150 leaf discs for 4MI, 135 leaf discs for 7MT; for optimal concentration for selection of putative transformants: on TRM
Text: as §4
Leaf discs (6 mm each in diameter) from 20 leaves of WT tobacco were used for each transformation experiment. After 6 weeks of selection on TRM with either 300 μM 4MI or 300 μM 7MT and 500 mg/l timentin to eliminate A. tumefaciens, the shoots regenerating from the callus were isolated and transferred to the Rooting Medium with analogs to initiate root growth. After root induction, the plantlets were transferred into soil and grown to maturity in a greenhouse. The T1 seeds were plated on either 4MI or 7MT for segregation tests and to obtain homozygous lines.
The ASA2 gene driven by the CaMV 35S promoter was transferred into tobacco leaf discs via the A. tumefaciens-mediated transformation method. Putative transformants were selected on TRM using the optimal concentration (300 μm) of 4MI and 7MT for selection. 31 resistant plants were obtained in two different experiments: 21 one on 4MI from a total of 150 leaf discs (10 resistant plants from 80 leaf discs in experiment 1 and 11 resistant plants from 70 leaf discs in experiment 2) and 10 on 7MT from a total of 135 leaf discs (6 resistant plants from 70 leaf discs in experiment 1 and 4 resistant plants from 65 leaf discs in experiment 2). […] GUS activity was assessed histochemically in PCR-GUS positive lines using leaf pieces confirming the results obtained with the molecular screening. When the transgenic plants were tested for ASA2 gene expression by RT-PCR an 815-bp fragment was amplified from total RNA extracted from young leaves from 15 transgenic lines while no fragment was detected in the WT. […]

[8] = system: tobacco leaf discs bombarded with vector pAST-IV; experiment: Selection of plastid transformants (pAST-IV) on analog; format: cell-based, Nicotiana tabacum cv. Havana; details: 60 leaf discs bombarded, 6-8 weeks selection
Description: DNA preparation, precipitation onto gold particles, and bombardment were performed as described previously (Svab & Maliga P, 1993) using 0.6 μm gold particles (Bio-Rad, Hercules, Calif.) as micro projectiles. Any suitable particle bombardment procedure can be used. Briefly, the plasmid containing the marker gene and a gene of interest are coated onto gold or tungsten microparticles. The coated particles are air dried and loaded on to a particle gun for particle bombardment into the desired tissue. Nicotiana tabacum cv. Havana was used in the experiments. Green calli and shoots resistant to either 7-MT or 4-MI were obtained after 6-8 wks of selection on RMOP medium (Svab et al., 1990) and subjected to three additional rounds of selection for the homoplastomic condition.
Six to eight weeks after bombardment, 28 independent resistant shoots/calli were recovered from 60 leaf discs bombarded with vector pAST-IV. The 28 lines selected directly for 4MI or 7MT resistance were tested by the PCR reaction using either primers specific for ASA2 gene (L40 and L 39) or a primer specific to the ASA2 coding region (L40) and a primer that is located in the plastid genome outside the flanking region of the vector (L29). […] A 815 bp (L40-L39) and a 2.1 kb (L40-L29) fragments were reproducibly detected in 5 transgenic of the 28 in dependent lines (3 from 7MT and 2 from 4 MI). […]

[9] = system: anthranilate synthase (AS) holoenzyme of WT tobacco; experiment: AS holoenzyme activity, inhibition by Trp, wild type (10 mM Gln as amino donor); format: biochemical, Nicotiana tabacum
Description: (§5) Approximately 2 g of leaves was homogenized with 1.5 volume of ice-cold extraction buffer as described in Bernasconi et al., (1994). The homogenate was centrifuged at 30,000 g at 4° C. for 10 min. The supernatant was desalted using a Econo-Pac 10 DG column (Bio-Rad, Hercules, Calif.). Protein concentration was determined using a protein dye-binding assay kit (Bio-Rad, Hercules, Calif.). The supernatant was combined with two volumes of assay buffer as described previously (Bernasconi et al., 1994) but without NH4Cl. AS enzyme activity was measured as the conversion rate of chorismate to anthranilate as described previously (Song et al., 1998). Either 100 mM NH4Cl or 10 mM glutamine was added to the assay mixture to determine α-subunit activity or AS holoenzyme activity respectively and Trp at different concentrations. Duplicate extracts of each line were analyzed.

[10] = system: AS holoenzyme of ASA2 transgenic tobacco lines; experiment: AS holoenzyme activity, inhibition by Trp, ASA2 transgenic lines (10 mM Gln); format: biochemical, Nicotiana tabacum; details: 300 μM Trp, pC2ASA2 lines
Description: as §5

[11] = system: AS α subunit of WT tobacco; experiment: AS α subunit activity, inhibition by Trp, wild type (100 mM NH4Cl as amino donor); format: biochemical, Nicotiana tabacum; details: 10 μm Trp, Example 6
Description: as §5

[12] = system: AS α subunit (feedback insensitive ASA2) of transgenic tobacco lines; experiment: AS α subunit activity, inhibition by Trp, ASA2 transgenic lines (100 mM NH4Cl); format: biochemical, Nicotiana tabacum; details: 300 μM Trp, pC2ASA2 lines
Description: as §5

SMILES | effectiveness as selection agent among the analogs tested [1] | callus production of the wild-type [1] | shoot formation of WT leaf discs [1] | growth of the ASA2 expressing (5-MT resistant) plants [2] | callus and shoot formation of ASA2 expressing leaf discs [2] | germination of WT and ASTIV seeds on analog containing medium [3] | WT seedling growth [3] | growth of the wild-type seedlings/roots ([3]; 300 μm analog) | germination and growth of T2 seed of homozygous ASA2 lines [4] | transgenic seedling growth [4] | transgenic seedling development after six weeks [4] | concentration for discriminating between wild type and ASA2 expressing tobacco shoot producing leaf discs [6] | resistant plants obtained (total of two experiments) [7] | optimal concentration for selection of putative transformants [7] [μm] | PCR-confirmed transgenic lines among 28 independent resistant lines [8] | further results
Cc1cccc2c(CC(N)C(=O)O)c[nH]c12 (racemic) [7MT, 7-methyl-DL-tryptophan] | most effective | greater inhibition; also recorded: inhibited | little shoot formation | not affected | formed callus and produced shoots | germinate almost equally | started to bleach, ceased to grow and eventually died | completely inhibited | all 100 seeds germinated and grew normally | grew well | growing with normal true leaf development | 7MT 400 μM | 10 | 300 | 3 | effectiveness as selection agent among the analogs tested ([1]; listed as 7-MT): enhanced selection properties; concentration for discriminating between wild type and ASA2 expressing Arabidopsis germinating seedlings [5]: 7MT 300 μM
Cc1cccc2[nH]ccc12 [4MI, 4-Methylindole] | most effective | greater inhibition; also recorded: inhibited | little shoot formation | not affected | formed callus and produced shoots | germinate almost equally | started to bleach, ceased to grow and eventually died | completely inhibited | all 100 seeds germinated and grew normally | grew well | growing with normal true leaf development | 4MI 300 μM | 21 | 300 | 2 | effectiveness as selection agent among the analogs tested ([1]; listed as 4-MI): enhanced selection properties; wild-type plant germination ([3]; 300 μm analog): inhibited
N[C@@H](Cc1c[nH]c2ccccc12)C(=O)O [Trp, tryptophan] |  |  |  |  |  |  |  |  |  |  |  |  |  |  |  | WT relative holoenzyme activity ([9]; 300 μM Trp, Example 9): almost completely inhibited; WT AS holoenzyme activity ([9]; 10 μm Trp, Example 6): almost completely inhibited; holoenzyme activity retained by line #6 and line #7 [10]: about 40%; WT AS α subunit activity [11]: almost completely inhibited; α-subunit activity retained by line #6 and line #7 [12]: about 40%
